In ChEMBL document CHEMBL3407356, “Design, synthesis, biological evaluation and molecular modeling of dihydropyrazole sulfonamide derivatives as potential COX-1/COX-2 inhibitors” (Bioorg Med Chem Lett, 2015):
pIC50: −log10 of the molar value.

Experiments:
[1] = Antiproliferative activity against mouse B16F10 cells after 24 hrs by MTT assay; format: functional, cell-based; settings: B16-F10, 24 h
[2] = test system: MCF7; experiment: Antiproliferative activity against human MCF7 cells after 24 hrs by MTT assay; format: functional, cell-based; settings: MCF7, 24 h
[3] = test system: HeLa; experiment: Antiproliferative activity against human HeLa cells after 24 hrs by MTT assay; format: functional, cell-based
[4] = target: Prostaglandin G/H synthase 1 (Homo sapiens, UniProt P23219); experiment: Inhibition of human recombinant COX1 by ELISA
Sequence of Prostaglandin G/H synthase 1 (P23219 whole entry): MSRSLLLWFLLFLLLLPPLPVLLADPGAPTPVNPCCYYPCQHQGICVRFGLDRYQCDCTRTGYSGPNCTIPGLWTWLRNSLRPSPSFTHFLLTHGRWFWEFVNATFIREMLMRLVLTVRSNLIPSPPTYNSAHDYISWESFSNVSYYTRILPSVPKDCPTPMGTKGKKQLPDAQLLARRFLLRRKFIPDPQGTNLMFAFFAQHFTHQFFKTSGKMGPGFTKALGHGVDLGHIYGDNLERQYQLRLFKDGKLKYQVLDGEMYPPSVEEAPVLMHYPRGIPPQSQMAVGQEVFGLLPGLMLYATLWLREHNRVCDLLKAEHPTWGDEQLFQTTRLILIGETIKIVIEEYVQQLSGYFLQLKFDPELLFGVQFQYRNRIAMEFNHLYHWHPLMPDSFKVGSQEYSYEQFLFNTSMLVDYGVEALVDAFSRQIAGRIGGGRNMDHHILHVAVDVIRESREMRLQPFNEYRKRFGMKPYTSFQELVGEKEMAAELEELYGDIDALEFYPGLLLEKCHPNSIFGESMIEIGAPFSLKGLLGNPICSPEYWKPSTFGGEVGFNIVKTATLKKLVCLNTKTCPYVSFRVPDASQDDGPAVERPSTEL

[5] = target: T1, Prostaglandin G/H synthase 2 (Homo sapiens, UniProt P35354); experiment: Inhibition of human recombinant COX2 by ELISA
T1 sequence (P35354 whole entry): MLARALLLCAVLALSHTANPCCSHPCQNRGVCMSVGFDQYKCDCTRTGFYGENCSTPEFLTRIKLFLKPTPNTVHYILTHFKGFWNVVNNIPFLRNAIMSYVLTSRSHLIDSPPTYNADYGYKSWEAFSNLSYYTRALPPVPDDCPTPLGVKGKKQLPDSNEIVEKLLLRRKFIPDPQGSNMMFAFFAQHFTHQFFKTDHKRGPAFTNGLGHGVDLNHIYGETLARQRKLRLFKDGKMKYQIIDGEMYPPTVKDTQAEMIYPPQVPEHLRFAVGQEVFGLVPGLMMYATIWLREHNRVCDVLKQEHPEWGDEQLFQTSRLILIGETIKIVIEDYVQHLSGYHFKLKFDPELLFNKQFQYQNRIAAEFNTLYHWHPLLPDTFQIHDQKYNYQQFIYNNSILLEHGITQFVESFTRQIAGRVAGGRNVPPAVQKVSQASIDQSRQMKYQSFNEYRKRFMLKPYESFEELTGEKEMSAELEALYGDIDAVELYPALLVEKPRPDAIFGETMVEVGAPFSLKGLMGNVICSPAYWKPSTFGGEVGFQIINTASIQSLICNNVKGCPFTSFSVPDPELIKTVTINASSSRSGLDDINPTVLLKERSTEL

[6] = Cytotoxicity against human 293T cells after 24 hrs by MTT assay; format: cell-based; settings: HEK-293T cells

SMILES | pIC50 [2] | pIC50 [3] | pIC50 [4] | pIC50 [5] | pIC50 [1] | CC50 at 24 h [6] [µM]
NS(=O)(=O)c1ccc(N2N=C3c4ccccc4CCC3C2c2ccccc2)cc1 (configuration not stated) | 5.27 | 4.59 | < 4.00 | 5.08 | 5.30 | 66.9
NS(=O)(=O)c1ccc(N2N=C3c4ccccc4CCC3C2c2ccccc2F)cc1 (configuration not stated) | 4.88 | 4.43 | < 4.00 | 4.92 | 5.50 | 57.9
NS(=O)(=O)c1ccc(N2N=C3c4ccccc4CCC3C2c2cccc(F)c2)cc1 (configuration not stated) | 4.23 | 5.30 | < 4.00 | 5.32 | 4.95 | 57.9
NS(=O)(=O)c1ccc(N2N=C3c4ccccc4CCC3C2c2ccc(F)cc2)cc1 (configuration not stated) | 5.16 | 4.65 | < 4.00 | 4.81 | 5.51 | 59.8
NS(=O)(=O)c1ccc(N2N=C3c4ccccc4CCC3C2c2ccccc2Cl)cc1 (configuration not stated) | 4.59 | 4.86 | < 4.00 | 5.31 | 4.70 | 65.3
NS(=O)(=O)c1ccc(N2N=C3c4ccccc4CCC3C2c2ccccc2Br)cc1 (configuration not stated) | 5.23 | 5.14 | < 4.00 | 4.90 | 5.45 | 61.1
NS(=O)(=O)c1ccc(N2N=C3c4ccccc4CCC3C2c2ccc(Br)cc2)cc1 (configuration not stated) | 4.44 | 5.20 | < 4.00 | 4.58 | 4.54 | 69.3
NS(=O)(=O)c1ccc(N2N=C3c4ccccc4CCC3C2c2ccc(C(F)(F)F)cc2)cc1 (configuration not stated) | 4.47 | 4.95 | < 4.00 | 4.74 | 5.24 | 55.2
NS(=O)(=O)c1ccc(N2N=C3c4ccccc4CCC3C2c2ccc(Cl)cc2Cl)cc1 (configuration not stated) | 4.86 | 5.45 | < 4.00 | 4.49 | 4.27 | 64
NS(=O)(=O)c1ccc(N2N=C3c4ccccc4OCC3C2c2ccccc2F)cc1 (configuration not stated) | 4.52 | 5.01 | < 4.00 | 5.14 | 4.45 | 70.5
NS(=O)(=O)c1ccc(N2N=C3c4ccccc4OCC3C2c2ccc(Cl)cc2)cc1 (configuration not stated) | 4.55 | 5.11 | < 4.00 | 5.08 | 5.42 | 61.4
NS(=O)(=O)c1ccc(N2N=C3c4ccccc4OCC3C2c2ccc(Br)cc2)cc1 (configuration not stated) | 4.34 | 5.08 | < 4.00 | 5.16 | 5.14 | 63.2
NS(=O)(=O)c1ccc(N2N=C3c4ccccc4OCC3C2c2c(F)cccc2Cl)cc1 (configuration not stated) | 4.39 | 5.11 | < 4.00 | 4.79 | 5.07 | 66.2
Cc1ccc(-c2cc(C(F)(F)F)nn2-c2ccc(S(N)(=O)=O)cc2)cc1 [CELECOXIB] | 5.23 | 5.13 |  |  | 5.34 | 72.4
COc1cc2ncnc(Nc3ccc(F)c(Cl)c3)c2cc1OCCCN1CCOCC1 [GEFITINIB] |  |  |  |  |  | 52

Continued, in another order:

pIC50 [2] | pIC50 [3] | pIC50 [4] | pIC50 [5] | SMILES | pIC50 [1] | CC50 at 24 h [6] [µM]
5.08 | 4.52 | 4.00 | 5.48 | Cc1ccccc1C1C2CCc3ccccc3C2=NN1c1ccc(S(N)(=O)=O)cc1 (configuration not stated) | 5.53 | 70.8
4.53 | 4.74 | 4.04 | 5.61 | Cc1cccc(C2C3CCc4ccccc4C3=NN2c2ccc(S(N)(=O)=O)cc2)c1 (configuration not stated) | 5.04 | 67.2
5.37 | 5.01 | 4.05 | 5.67 | Cc1ccc(C2C3CCc4ccccc4C3=NN2c2ccc(S(N)(=O)=O)cc2)cc1 (configuration not stated) | 4.77 | 63.6
4.23 | 4.84 | 4.02 | 5.58 | COc1ccccc1C1C2CCc3ccccc3C2=NN1c1ccc(S(N)(=O)=O)cc1 (configuration not stated) | 4.93 | 67.2
4.98 | 4.72 | 4.07 | 5.95 | COc1cccc(C2C3CCc4ccccc4C3=NN2c2ccc(S(N)(=O)=O)cc2)c1 (configuration not stated) | 5.75 | 68.2
4.27 | 4.93 | 4.00 | 5.46 | NS(=O)(=O)c1ccc(N2N=C3c4ccccc4CCC3C2c2cccc(Br)c2)cc1 (configuration not stated) | 4.55 | 52.6
4.96 | 5.32 | 4.06 | 5.75 | NS(=O)(=O)c1ccc(N2N=C3c4ccccc4CCC3C2c2cccc(O)c2)cc1 (configuration not stated) | 4.48 | 69.2
4.61 | 5.28 | 4.00 | 5.44 | NS(=O)(=O)c1ccc(N2N=C3c4ccccc4CCC3C2c2c(F)cccc2Cl)cc1 (configuration not stated) | 4.43 | 68.3
4.39 | 4.44 | 4.23 | 6.34 | Cc1ccccc1C1C2COc3ccccc3C2=NN1c1ccc(S(N)(=O)=O)cc1 (configuration not stated) | 4.65 | 64.8
4.37 | 4.86 | 4.16 | 6.48 | COc1ccccc1C1C2COc3ccccc3C2=NN1c1ccc(S(N)(=O)=O)cc1 (configuration not stated) | 4.99 | 83.2
4.69 | 5.14 | 4.11 | 5.99 | COc1ccc(C2C3COc4ccccc4C3=NN2c2ccc(S(N)(=O)=O)cc2)cc1 (configuration not stated) | 4.80 | 69.5
4.62 | 4.88 | 4.06 | 5.64 | NS(=O)(=O)c1ccc(N2N=C3c4ccccc4OCC3C2c2ccccc2Cl)cc1 (configuration not stated) | 4.92 | 75
4.56 | 5.53 | 4.04 | 5.90 | NS(=O)(=O)c1ccc(N2N=C3c4ccccc4OCC3C2c2ccccc2Br)cc1 (configuration not stated) | 4.92 | 81.6
4.33 | 4.76 | 4.02 | 5.56 | NS(=O)(=O)c1ccc(N2N=C3c4ccccc4OCC3C2c2ccc(Cl)cc2Cl)cc1 (configuration not stated) | 5.32 | 57.1
